Results reported in patent US20240368133A1, “Compounds for the Treatment of Pain, in Particular, Neuropathic Pain, and/or Other Diseases or Disorders that are Associated with AT2R and/or AT2R Mediated Signaling” (Confo Therapeutics N.V., priority 2021, published 2024).
Like-named read-outs stand apart in the source and are kept apart here.

Experiments:
[1] = biological target: human AT2R fused to Cb23 (Homo sapiens, UniProt P50052); assay: Radioligand binding assay, displacement of 125I-[Sar1, Ile8]-Angiotensin II, hAT2R Cb23; settings: displacement of 125I-[Sar1, Ile8]-Angiotensin II, human AT2R fused to Cb23, HEK-293 cell membrane preparations; read-out: Binding affinity on hAT2R_Cb23 IC50
Sequence of human AT2R fused to Cb23 (P50052 whole entry, looked up, the tested form may be a part): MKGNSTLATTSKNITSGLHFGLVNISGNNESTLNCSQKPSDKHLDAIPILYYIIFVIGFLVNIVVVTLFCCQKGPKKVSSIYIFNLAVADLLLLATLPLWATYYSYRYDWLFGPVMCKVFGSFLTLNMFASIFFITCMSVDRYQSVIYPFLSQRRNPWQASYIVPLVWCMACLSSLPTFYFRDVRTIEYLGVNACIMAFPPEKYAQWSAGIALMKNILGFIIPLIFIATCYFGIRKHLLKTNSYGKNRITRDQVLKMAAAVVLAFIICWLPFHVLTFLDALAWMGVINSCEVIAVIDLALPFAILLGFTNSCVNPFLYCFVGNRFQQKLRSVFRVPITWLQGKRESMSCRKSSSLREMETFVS
Procedure, shortened: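 Membranes from HEK-293 cells expressing human AT2R fused to Cb23 were incubated with 0.05 nM 125I-[Sar1, Ile8]-Angiotensin II in 100 μL buffer (50 mM Tris, 5 mM MgCl2, 1 mM EDTA, 0.1% BSA, pH 7.4) for one hour at 25° C. Ligands were tested as eight-point dose-response curves in duplicate, with C21 and Angiotensin II as references.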

[2] = biological target: CYP3A4 (Homo sapiens (Human), UniProt P08684); assay: CYP inhibition, CYP3A4; format: in vitro ADME; settings: test compound at 10 μM
Sequence of CYP3A4 (P08684 whole entry): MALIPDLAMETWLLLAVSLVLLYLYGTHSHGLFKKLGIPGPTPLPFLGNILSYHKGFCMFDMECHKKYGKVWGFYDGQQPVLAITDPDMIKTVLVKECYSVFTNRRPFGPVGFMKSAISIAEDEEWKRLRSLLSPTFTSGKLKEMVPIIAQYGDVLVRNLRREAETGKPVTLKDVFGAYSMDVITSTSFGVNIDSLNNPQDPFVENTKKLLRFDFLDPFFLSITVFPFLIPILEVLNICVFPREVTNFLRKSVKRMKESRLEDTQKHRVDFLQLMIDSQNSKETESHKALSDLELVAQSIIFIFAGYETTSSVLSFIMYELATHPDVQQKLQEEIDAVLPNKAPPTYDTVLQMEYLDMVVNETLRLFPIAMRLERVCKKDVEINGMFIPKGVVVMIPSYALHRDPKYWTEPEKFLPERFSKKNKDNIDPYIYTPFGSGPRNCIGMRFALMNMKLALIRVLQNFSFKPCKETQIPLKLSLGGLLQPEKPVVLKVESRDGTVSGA
Method: (§1) The aim of this assay is to determine the inhibitory potential of a test compound. A major concern for drug-drug-interaction is cytochrome P450 inhibition. Reversible CYP inhibition was determined in human liver microsomes using specific probe substrates for human cytochrome P450 isoenzymes CYP1A2, 2C9, 2C19, 2D6 and 3A4.
The potential for CYP450 inhibition was assessed by performing in vitro inhibition studies using fluorogenic CYP450 substrates with the corresponding CYP450 enzymes and NADPH regeneration system (Vivid CYP450 Screening Kits) with some minor changes to the manufacturer's protocols. The fluorescent signal produced from reaction is directly proportional to the cytochrome P450 activity. In the cases when tested compounds interfere with the CYP450 enzyme-substrate reaction, the fluorescent signal decreases. In brief, the tested compounds were first dissolved in DMSO at 100× concentration (1 mM), and diluted in buffer to 2.5× concentration (25 μM). Then the 2.5× compound solutions were mixed with the Master Pre-mix consisting of Human CYP450+Oxidoreductase and NADP+Regeneration System (glucose-6-phosphate and glucose-6-phosphate dehydrogenase). After 10 minutes pre-incubation, the enzymatic reaction was initiated by the addition of a mix of NADPH and the appropriate CYP450 substrates. The plate was incubated for the desired reaction time (25 min for CYP1A2, CYP2C9, CYP2D6, and CYP3A4, 60 min for CYP2C19) after which Stop Reagent was added and fluorescence measured using SpectraMax Paradigm Multi-Mode Microplate Reader. All test points were performed in quadruplicates at concentration 10 μM (1% DMSO).
(§2) A 10 mM stock solution of test compound is prepared in methanol. This stock is further serially diluted 1:3 in methanol and then added to mixture containing 50 mM potassium phosphate buffer pH7.4, human liver microsomes (BD Gentest) and probe substrate. After pre-warming 5 min at 37° C., the reaction is started by adding co-factor mix ([…] glucose-6-phosphate, 1.7 mg/mL NADP, 6 U/mL of glucose-6-phosphate dehydrogenase), resulting in a final concentration of test compound at 10 μM (2% MeOH).
(§3) Final concentrations of co-factor mix components are as follows: 1.56 mg/mL glucose-6-phosphate, 0.34 mg/mL NADP, 1.2 U/mL of glucose-6-phosphate dehydrogenase.
(§4) After incubation at 37° C., the reaction (aliquot of 50 μL) is terminated with 150 μL CH3CN:MeOH (2:1) solution with internal standard (warfarin for 2C9, diclofenac for all other tested isoforms). Samples are centrifuged and the supernatant fractions analyzed by LC-MS/MS.
(§5) The instrument responses (ratio of test compound and internal standard peak areas) are referenced to those for solvent controls (assumed as 100%) in order to determine the percentage reduction in probe metabolism. Percent of control activity vs. concentration plots are generated and fitted using GraphPad Prism software to generate IC50.

[3] = biological target: CYP2D6 (Homo sapiens (Human), UniProt P10635); assay: CYP inhibition, CYP2D6; format: in vitro ADME; settings: test compound at 10 μM, read-out: % Inhibition (PIN) 2D6
Sequence of CYP2D6 (P10635 whole entry): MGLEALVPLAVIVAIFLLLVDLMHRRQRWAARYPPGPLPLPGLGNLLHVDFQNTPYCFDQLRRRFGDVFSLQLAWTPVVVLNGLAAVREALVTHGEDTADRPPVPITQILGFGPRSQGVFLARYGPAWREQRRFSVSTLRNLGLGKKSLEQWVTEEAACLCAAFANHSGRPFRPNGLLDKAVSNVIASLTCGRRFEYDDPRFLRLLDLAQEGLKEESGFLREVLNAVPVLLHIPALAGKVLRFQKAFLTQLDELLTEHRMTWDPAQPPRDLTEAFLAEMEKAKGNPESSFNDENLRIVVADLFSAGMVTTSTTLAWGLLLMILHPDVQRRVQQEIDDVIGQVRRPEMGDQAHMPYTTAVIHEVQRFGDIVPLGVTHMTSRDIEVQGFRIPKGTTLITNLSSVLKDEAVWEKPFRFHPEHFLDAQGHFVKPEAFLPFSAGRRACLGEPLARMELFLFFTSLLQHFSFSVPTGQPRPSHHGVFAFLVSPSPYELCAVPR
Method: as §1, with “3A4. […]” for “3A4.”
as §2, §3, §4, §5

[4] = human, probe not marked, read-out: % Inhibition (PIN) 3A4
[5] = pH 7.4, probe substrate Midazolam (M), human liver microsomes, read-out: % Inhibition (PIN) 3A4
[6] = pH 7.4, probe substrate Testosterone (T), human liver microsomes, read-out: % Inhibition (PIN) 3A4 (T)

| IC50 [1] [nM] | inhibition at 10 µM [2, 4] [%] | inhibition at 10 µM [3] [%] | inhibition at 10 µM [2, 5] [%] | inhibition at 10 µM [2, 6] [%] | SMILES |
| --- | --- | --- | --- | --- | --- |
| 2180 |  |  |  |  | CCCCOC(=O)NS(=O)(=O)c1ccc(C(F)(F)F)cc1N1CCN(Cc2nc3ccccc3n2C)CC1 [Compound A-09, butyl N-[2-[4-[(1-methylbenzimidazol-2-yl)methyl]piperazin-1-yl]-4-(trifluoromethyl)phenyl]sulfonylcarbamate] |
| 7140 | 59.5 | 3.85 |  |  | CC(C)Oc1ccc(-c2nn[nH]n2)c(N2CCN(Cc3nc4ccccc4n3C)CC2)c1 [Compound A-24, 2-[[4-[5-isopropoxy-2-(2H-tetrazol-5-yl)phenyl]piperazin-1-yl]methyl]-1-methyl-benzimidazole] |
| 2070 | 94.6 | 23.1 |  |  | CC(C)Cc1ccc(-c2nn[nH]n2)c(N2CCN(Cc3nc4ccccc4c(=O)[nH]3)CC2)c1 [Compound A-31, 2-[[4-[5-isobutyl-2-(2H-tetrazol-5-yl)phenyl]piperazin-1-yl]methyl]-3H-quinazolin-4-one] |
| 14700 | 68.2 | 38.2 |  |  | CC(C)Oc1ccc(-c2nn[nH]n2)c(N2CCN(Cc3nc4ccccc4c(=O)[nH]3)CC2)c1 [Compound A-32] |
| 2110 |  |  |  |  | CC(C)Oc1ccc(-c2nn[nH]n2)c(N2CCN(Cc3nc4ccccc4s3)CC2)c1 [Compound A-51, 2-[[4-[5-isoprop-oxy-2-(2H-tetrazol-5-yl)phenyl]piper-azin-1-yl]methyl]-1,3-benzothiazole] |
| 3200 | 50.6 | -2.54 |  |  | Cc1cc(CN2CCN(c3cc(CC(C)C)ccc3-c3nn[nH]n3)CC2)no1 [Compound A-82, 3-[[4-[5-isobutyl-2-(2H-tetrazol-5-yl)phenyl]piperazin-1-yl]methyl]-5-methyl-isoxazole] |
| 15500 | 21.1 | 6.32 |  |  | CC(C)Cc1ccc(-c2nn[nH]n2)c(N2CCN(Cc3ncccn3)CC2)c1 [Compound A-88] |
| 2030 | 55.3 | 1.84 |  |  | CC(C)Cc1ccc(-c2nn[nH]n2)c(N2CCN(Cc3cccnn3)CC2)c1 [Compound A-90, 3-[[4-[5-isobutyl-2-(2H-tetrazol-5-yl)phenyl]piperazin-1-yl]methyl]pyridazine] |
| 2.35 | 36 | 9.35 |  |  | CC(C)Cc1cc(F)c(-c2nn[nH]n2)c(N2CCN(Cc3cccnn3)[C@@H](C)C2)c1 [Compound A-174, 3-[[(2S)-4-[3-fluoro-5-isobutyl-2-(2H-tetrazol-5-yl)phenyl]-2-methyl-piperazin-1-yl]methyl]pyridazine] |
| 14.8 |  |  |  |  | CCC1CN(Cc2cccnn2)CCN1c1cc(CC(C)C)cc(F)c1-c1nn[nH]n1 (stereo not shown) [Compound A-181, 3-[[3-ethyl-4-[3-fluoro-5-isobutyl-2-(2H-tetrazol-5-yl)phenyl]piperazin-1-yl]methyl]pyridazine] |
| 8.33 |  |  |  |  | CC(C)Cc1cc(F)c(-c2nn[nH]n2)c(N2CC(C)N(Cc3cccnn3)CC2C)c1 (stereo not shown) [Compound A-183, 3-[[4-[3-fluoro-5-isobutyl-2-(2H-tetrazol-5-yl)phen-yl]-2,5-dimethyl-piperazin-1-yl]-methyl]pyridazine] |
| 6 |  | 15 | 82 | 28 | Cc1cnc(CN2CCN(c3cc(CC(C)C)cc(F)c3-c3nn[nH]n3)C[C@@H]2C)s1 [Compound A-223, 2-[[(2S)-4-[3-fluoro-5-isobutyl-2-(2H-tetrazol-5-yl)phenyl]-2-methyl-piperazin-1-yl]methyl]-5-methyl-thiazole] |

The remaining lines, values behind:

| SMILES | IC50 [1] [nM] | inhibition at 10 µM [2, 4] [%] | inhibition at 10 µM [3] [%] | inhibition at 10 µM [2, 5] [%] | inhibition at 10 µM [2, 6] [%] |
| --- | --- | --- | --- | --- | --- |
| CCCCNC(=O)NS(=O)(=O)c1ccc(C(F)(F)F)cc1N1CCN(Cc2nc3ccccc3n2C)CC1 [Compound A-10, 1-butyl-3-[2-[4-[(1-methylbenzimidazol-2-yl)methyl]piperazin-1-yl]-4-(trifluoromethyl)phenyl]sulfonyl-urea] |  | 54.2 | 14.8 |  |  |
| CCCCNC(=O)NS(=O)(=O)c1ccc(C)cc1N1CCN(Cc2nc3ccccc3n2C)CC1 [Compound A-12, 1-butyl-3-[4-methyl-2-[4-[(1-methylbenzimidazol-2-yl)methyl]piperazin-1-yl]phenyl]sulfonyl-urea] | 1270 |  |  |  |  |
| CC(C)Cc1ccc(-c2nn[nH]n2)c(N2CCN(Cc3nc4ccccc4n3C)CC2)c1 [Compound A-20, 2-[[4-[5-isobutyl-2-(2H-tetrazol-5-yl)-phenyl]piperazin-1-yl]methyl]-1-meth-yl-benzimidazole] | 510 |  |  |  |  |
| CC(C)Cc1ccc(-c2nn[nH]n2)c(N2CCN(Cc3nccn3C)CC2)c1 [Compound A-83, 1-[5-isobutyl-2-(2H-tetrazol-5-yl)-phenyl]-4-[(1-meth-ylimidazol-2-yl)-methyl]piperazine] | 1780 | 38.7 | -0.65 |  |  |
| CC(C)Cc1ccc(-c2nn[nH]n2)c(N2CCN(Cc3ccnn3C)CC2)c1 [Compound A-84, 1-[5-isobutyl-2-(2H-tetrazol-5-yl)phenyl]-4-[(1-methylpyrazol-5-yl)methyl]piperazine] | 2370 | 49.1 | -7.67 |  |  |
| CC(C)Cc1cc(F)c(-c2nn[nH]n2)c(N2CCN(Cc3cccnn3)C(C)C2)c1 (stereo not shown) [Compound A-173, 3-[[4-[3-fluoro-5-isobutyl-2-(2H-tetrazol-5-yl)phenyl]-2-methyl-piperazin-1-yl]methyl]pyridazine] | 16 | 29.4 | 16.3 |  |  |
| CCC1CN(c2cc(CC(C)C)cc(F)c2-c2nn[nH]n2)CCN1Cc1cccnn1 (stereo not shown) [Compound A-178, 3-[[2-ethyl-4-[3-fluoro-5-isobutyl-2-(2H-tetrazol-5-yl)phenyl]piperazin-1-yl]methyl]pyridazine] | 33.5 | 8 | 25.6 |  |  |
| CC(C)Cc1cc(F)c(-c2nn[nH]n2)c(N2CCN(Cc3ccccn3)[C@@H](C)C2)c1 [Compound A-217, (2S)-4-[3-fluoro-5-isobutyl-2-(2H-tetrazol-5-yl)phenyl]-2-methyl-1-(2-pyridylmethyl)piperazine] | 2.79 |  | 68 | 73 | 25 |
